Data from US6924314B2, “Compounds for the treatment of metabolic disorders” (Wellstat Therapeutics Corporation, priority 2001, dated 2005).

Tests used:
[1] = system: mice with severe insulin-dependent diabetes; test: Mortality in severe insulin-dependent diabetes (multiple high doses of STZ); assay type: in vivo; details: STZ 75 mg/kg i.p. x5 balb/C mice, 30 mg/kg/day oral, after three weeks of daily treatment
Experimental: Female balb/C mice (19 wks of age at start of experiment) were challenged with multiple high doses of STZ (75 mg/kg i.p. on 5 consecutive days). Animals were then divided in two groups (20 mice/group) matched for severity of diabetes. Four days after the last dose of STZ, treatments were initiated. One group received Vehicle (0.4 ml of 0.75% HPMC, p.o.), and the other group received oral COMPOUND AA (30 mg/kg/day). After three weeks of daily treatment, cumulative mortality in the Vehicle Control group was 19/20 mice. In contrast, only 5/20 of the COMPOUND AA mice died during this time.

[2] = system: ob/ob obese diabetic mice; test: Acute hypoglycemic effect in ob/ob obese diabetic mice: Experiment 1; assay type: in vivo; details: single oral dose by gavage, 6 hours
Experimental: Male ob/ob diabetic mice were randomized into groups of five animals each. Body weights were 50-55 g and blood glucose was approximately 300 mg/dL in the fed state. A single oral dose of a test substance suspended in 0.5% carboxymethylcellulose vehicle was administered by gavage. Blood glucose was measured in blood droplets obtained by nicking a tail vein with a razor using glucometer test strips and a Glucometer Elite XL device (Bayer) at 0, 0.5, 2, 4, 6 and 18 hours after the initial dosing. A 10% reduction in blood glucose versus oral vehicle is considered a positive screening result. Blood glucose reductions were generally maximal at 6 hours after drug administration.

[3] = system: streptozotocin diabetic mice; test: Serum chemistries and body weights in streptozotocin diabetic mice treated with oral Compound AH for 14 weeks; assay type: in vivo, Balb/C mice
Experimental: Streptozotocin (STZ) is a toxin that selectively destroys insulin-producing pancreatic beta cells, and is widely used to induce insulin-dependent diabetes in experimental animals.
Female Balb/C mice (8 weeks old; 18-20 grams body weight) were treated with streptozotocin (STZ) (50 mg/kg i.p. on each of five consecutive days). Fourteen days after the last dose of STZ, blood glucose was measured to verify that the animals were diabetic, and the mice were divided into two groups of 5 animals each, one group receiving Compound AH (250 mg/kg) daily by oral gavage, and the other receiving vehicle (0.75% hydroxypropylmethylcellulose, a suspending agent, in water). […] Blood samples were taken periodically for determination of blood glucose concentrations, and body weights were also recorded.
Body weights and blood glucose, triglyceride and cholesterol concentrations 14 weeks after the beginning of drug treatment are shown in Table 1.

[4] = system: mice with lethal insulin-dependent diabetes; test: Survival of mice with lethal insulin-dependent diabetes (single dose streptozotocin); assay type: in vivo, Balb/C mice; details: for Survivors (Survival at 12 weeks): STZ 175 mg/kg i.p. Balb/C mice
Experimental: Female Balb/C mice (14 weeks old) were treated with a single dose of streptozotocin (175 mg/kg i.p.) to induce severe insulin-dependent diabetes. Seven days later, mice were divided into three treatment groups: Compound AH, pioglitazone, and vehicle. Mice were treated daily via oral gavage, and survival was monitored over time.

[5] = system: NOD mice; test: Incidence of spontaneous diabetes and mortality in NOD mice; assay type: in vivo; details: 200 mg/kg/day oral, seven months
Experimental: A substantial proportion of NOD (“non-obese diabetic”) mice develop insulin-dependent diabetes as a consequence of spontaneous autoimmune destruction of pancreatic islet cells. Two groups of 20 NOD mice (6 weeks old) were treated daily with either oral Vehicle (0.4 ml of 0.75% hydroxypropyl methylcellulose in water; HPMC) or Compound AH (200 mg/kg/day) suspended in HPMC. The incidence of mortality due to spontaneous development of severe insulin-dependent diabetes was monitored over a period of seven months. At the end of this time, 13/20 mice treated with vehicle had died of uncontrolled diabetes, whereas only 5/20 mice treated with Compound AH had died.

[6] = system: db/db mice; test: Antidiabetic effects in db/db mice, second experiment, 8 weeks of treatment; assay type: in vivo
Source text: (§1) Blood samples were obtained via the retro-orbital sinus for serum chemistry analysis, or via the tail vein for glucose measurement with a test strip and glucometer.
Groups consisted of 6-8 mice each.

[7] = system: db/db mice; test: Antidiabetic effects in db/db mice, 2 weeks (Example I); assay type: in vivo, C57BL/Ksola mice; details: for Glucose / Glucose (% of Control): nonfasting; for Free Fatty Acids ± SEM / Triglycerides ± SEM: serum
Source text: (§2) db/db mice have a defect in leptin signaling, leading to hyperphagia, obesity and diabetes. Moreover, unlike ob/ob mice on a C57BL/6J background, db/db mice on a C57BL/KS background undergo failure of their insulin-producing pancreatic islet β cells, resulting in progression from hyperinsulinemia (associated with peripheral insulin resistance) to hypoinsulinemic diabetes.
(§3) A minimum of 7 days was allowed for adaptation after arrival.
Treatment cohorts were given daily oral doses of (1% hydroxypropylmethylcellulose), Compounds BI, BO, BP, BQ or BR for 2 weeks. At the end of the treatment period 100 μl of venous blood was withdrawn in a heparinized capillary tube from the retro-orbital sinus of db/db mice for serum chemistry analysis.

[8] = system: db/db mice; test: Antidiabetic effects in db/db mice, 2 weeks (Example J); assay type: in vivo, C57BL/Ksola mice
Source text: as §2, with “islet” for “islet β”
as §3
Treatment cohorts were given daily oral doses of Vehicle (1% hydroxypropylmethylcellulose), Compounds BI, BS, BT, BU, BV or Fenofibrate for 2 weeks. At the end of the treatment period 100 μl of venous blood was withdrawn in a heparinized capillary tube from the retro-orbital sinus of db/db mice for serum chemistry analysis.

[9] = system: Zucker Diabetic Fatty (ZDF) rats; test: Attenuation of cataractogenesis in Zucker Diabetic Fatty (ZDF) rats; assay type: in vivo; details: 100 mg/kg daily oral, 10 weeks
Source text: Cataracts are one of the leading causes of progressive vision decline and blindness associated with ageing and diabetes, and the Zucker diabetic fatty (ZDF) model has many similarities with human cataractogenesis, including biochemical changes and oxidative stress in the lens. These rats, however, undergo cataractogenesis typically between 14-16 weeks of age.
Male ZDF rats and their aged-match Zucker lean (ZL) counterparts (fa/+ or +/+) were obtained from Genetic Models, Inc. (Indianapolis, Ind.) aged 12 weeks and acclimatized for 1 week prior to study. […] Treatment cohorts were given a daily oral dose of vehicle and 100 mg/kg of BI or BH for 10 weeks. […] At the end of the treatment period 100 μl of venous blood was collected (usually 10:00 A.M.) in a heparinized tube from the tail vein for serum chemistry analysis (Anilytics, Inc., Gaithersburg, Md.). […] Plasma insulin was measured by an electrochemiluminescent immunoassay, ECL (Origen Analyzer, Igen, Inc., Gaithersburg, Md.). The animals were sacrificed and tissues and/or organs (lens and liver) were extirpated, weighed (wet weight) and processed for biochemical analyses. Malondialdehyde (MDA), a major product of lipid peroxidation was assayed in lenses according to Ohkawa et al (1979), Analytical Biochem 95, 351-358).

[10] = system: high fat-fed C57Bl/6J mice; test: Circulating triglycerides, free fatty acids, insulin and leptin in high fat-fed C57Bl/6J mice; assay type: in vivo; details: for Free Fatty Acids / Triglycerides: after 2 weeks of drug treatments
Source text: The high fat-fed mouse is a model for the hypertriglyceridemia and high circulating fatty acid levels, and the insulin and leptin resistance that are found in people at risk for and with obesity, diabetes, cardiovascular disease and other disorders. Male C57Bl/6J mice, approximately 8 weeks of age, were randomly assigned into groups of 6 animals. […] Mice were fed a high-fat diet (diet number D12451, containing 45% of calories as fat (Research Diets, New Brunswick, N.J.)) for 6 weeks. […]

[11] = system: ob/ob mice; test: Hyperglycemia, hyperlipidemia, fatty liver disease and weight gain in ob/ob obese diabetic mice, daily oral dosing; assay type: in vivo, C57BL/6 mice; details: for Free Fatty Acids ± SEM / Glucose ± SEM / Triglycerides ± SEM / ALT (U/L) ± SEM / AST (U/L) ± SEM / SDH (U/L) ± SEM: 4 weeks; for Mean body weight gain (grams): four week treatment period; for ALT (U/L) ± SEM / AST (U/L) ± SEM / SDH (U/L) ± SEM: serum
Source text: Ob/ob mice have a defect in the gene for leptin, a protein involved in appetite regulation and energy metabolism, and are hyperphagic, obese, and insulin resistant. They develop hyperglycemia and fatty liver.

[12] = system: db/db mice; test: Antidiabetic effects in db/db mice, four weeks of daily oral dosing; assay type: in vivo; details: 100 mg/kg daily oral, four weeks
Source text: Db/db mice have a defect in leptin signaling, leading to hyperphagia, obesity and diabetes. Moreover, unlike ob/ob mice which have relatively robust islets, their insulin-producing pancreatic islet cells undergo failure during chronic hyperglycemia, so that they transition from hyperinsulinemia (associated with peripheral insulin resistance) to hypoinsulinemic diabetes.
as §1, with “Male db/db mice were given daily oral treatments with vehicle (0.75% hydroxypropylmethylcellulose) or antidiabetic compounds as indicated below. Blood” for “Blood”
The dose of pioglitazone used in this experiment was reported in the literature to be a maximally-effective dose for treatment of db/db mice (Shimaya et al. (2000), Metabolism 49:411-7).

[13] = streptozotocin diabetic Balb/C mice, 250 mg/kg daily oral gavage, 14 weeks
[14] = 150 mg/kg, 8 weeks of treatment
[15] = nonfasting, 100 mg/kg daily oral
[16] = serum, daily oral, dose per Table 12: 100 mg/kg

O=C(O)CCC(=O)c1ccc(OCc2ccccc2F)cc1 [Compound AA, 4-(4-(2-Fluorobenzyloxy)phenyl)-4-oxobutyric acid]
cumulative mortality [1]: 5/20
% Reduction vs Control [2]: −18.5 ± 8.4%
Blood Glucose after 6 hours [2]: 242 ± 25 mg/dL

O=C(O)CCC(=O)c1ccc(OCc2c(F)cccc2F)cc1 [Compound AH, 4-(4-(2,6-Difluorobenzyloxy)phenyl)-4-oxobutyric acid]
blood glucose concentrations ([3]; 250 mg/kg daily oral, after several weeks of treatment): began to decrease toward baseline
metabolic abnormalities associated with insulin-dependent diabetes ([3]; oral treatment, 250 mg/kg daily): significant amelioration
Body Weight [3, 13]: 21.7 ± 0.8 g
Cholesterol [3, 13]: 82 ± 2 mg/dL
Glucose [3, 13]: 207 ± 12 mg/dL
Triglycerides [3, 13]: 62 ± 7 mg/dL
body weights of survivors at 12 weeks ([4]; 250 mg/kg/day oral gavage): recovered and were maintained in the normal range
Survivors (Survival at 12 weeks) ([4]; 250 mg/kg/day oral gavage): 4/5
mortality due to spontaneous severe insulin-dependent diabetes [5]: 5/20
% Reduction vs Control [2]: −24.9 ± 3.7%
Blood Glucose after 6 hours [2]: 223 ± 11 mg/dL

Cc1cccc(C)c1COc1cccc(C(=O)CCC(=O)O)c1 [Compound BI, 4-(3-(2,6-Dimethylbenzyloxy)phenyl)-4-oxobutyric acid]
Glucose [6, 14]: 254 ± 30 mg/dL
Triglycerides [6, 14]: 99 ± 8 mg/dL
blood glucose and triglycerides compared to vehicle-treated controls ([6]; after 8 weeks of treatment): significantly lower
Glucose ([7]; 100 mg/kg daily oral): 423 ± 53 mg/dL
Glucose (% of Control) ([7]; 100 mg/kg daily oral): 67 ± 8 % of Control
Glucose ([7]; 150 mg/kg daily oral): 279 ± 35 mg/dL
Glucose (% of Control) ([7]; 150 mg/kg daily oral): 44 ± 6 % of Control
Free Fatty Acids ± SEM ([7]; 100 mg/kg daily oral): 2999.9 ± 98.7 µM
Triglycerides ± SEM ([7]; 100 mg/kg daily oral): 134.0 ± 13.1 mg/dL
Free Fatty Acids ± SEM ([7]; 150 mg/kg daily oral): 2234.0 ± 162.6 µM
Triglycerides ± SEM ([7]; 150 mg/kg daily oral): 103.6 ± 8.3 mg/dL
Glucose [8, 15]: 347.0 ± 43.1 mg/dL
Glucose (% of Control) [8, 15]: 50 ± 6 % of Control
Free Fatty Acids ± SEM [8, 16]: 1997.2 ± 196.4 µM
Triglycerides ± SEM [8, 16]: 77.8 ± 5.3 mg/dL
% Protection Left Eye [9]: 50%
% Protection Right Eye [9]: 83%
Cataract Formation Left Eye [9]: 3/6
Cataract Formation Right Eye [9]: 1/6
Lenticular MDA ([9]; means ± SEM): 0.8 ± 0.1 nmol/g lens
Size (mm) Left Lens ([9]; means ± SEM): 3.4 ± 0.2 mm
Size (mm) Right Lens ([9]; means ± SEM): 3.8 ± 0.1 mm
Weight (mg) Left Lens ([9]; means ± SEM): 38.1 ± 7.3 mg
Weight (mg) Right Lens ([9]; means ± SEM): 54.9 ± 1.2 mg
Free Fatty Acids ([10]; 10 mg/kg oral gavage): 1227 ± 193.7 µmol/L
Triglycerides ([10]; 10 mg/kg oral gavage): 68.8 ± 5.7 mg/dL
Free Fatty Acids ([10]; 30 mg/kg oral gavage): 1292 ± 231.4 µmol/L
Triglycerides ([10]; 30 mg/kg oral gavage): 66.5 ± 14.7 mg/dL
Free Fatty Acids ([10]; 100 mg/kg oral gavage): 992.8 ± 172.1 µmol/L
Triglycerides ([10]; 100 mg/kg oral gavage): 37.4 ± 8.3 mg/dL
serum triglycerides and free fatty acids ([10]; oral gavage): effective at lowering
insulin serum levels ([10]; oral gavage, after 4 weeks of drug treatments (FIG. 1)): effective at lowering
leptin serum levels ([10]; oral gavage, after 4 weeks of drug treatments (FIG. 2)): effective at lowering

CCc1ccc(CCOc2ccc(CC3SC(=O)NC3=O)cc2)nc1 (centres unmarked) [Pioglitazone, pioglitazone, reference compound]
body weight lost by survivors at 12 weeks ([4]; 30 mg/kg/day oral gavage): 15-20%
Survivors (Survival at 12 weeks) ([4]; 30 mg/kg/day oral gavage): 2/5
Free Fatty Acids ± SEM ([11]; 30 mg/kg/day oral): 2606 ± 139.2 µmol/L
Glucose ± SEM ([11]; 30 mg/kg/day oral): 188.2 ± 21.4 mg/dL
Triglycerides ± SEM ([11]; 30 mg/kg/day oral): 111.2 ± 7.5 mg/dL
Mean body weight gain (grams) ([11]; 30 mg/kg/day): +10.0 grams
Free Fatty Acids ± SEM ([11]; 100 mg/kg/day oral): 1983.4 ± 66.1 µmol/L
Glucose ± SEM ([11]; 100 mg/kg/day oral): 174.6 ± 11.5 mg/dL
Triglycerides ± SEM ([11]; 100 mg/kg/day oral): 95.2 ± 4.8 mg/dL
Mean body weight gain (grams) ([11]; 100 mg/kg/day): +13.6 grams
ALT (U/L) ± SEM ([11]; 30 mg/kg/day oral): 713.6 ± 80.6 U/L
AST (U/L) ± SEM ([11]; 30 mg/kg/day oral): 1024 ± 88.7 U/L
SDH (U/L) ± SEM ([11]; 30 mg/kg/day oral): 782.0 ± 70.6 U/L
ALT (U/L) ± SEM ([11]; 100 mg/kg/day oral): 646.0 ± 56.1 U/L
AST (U/L) ± SEM ([11]; 100 mg/kg/day oral): 901.0 ± 49.3 U/L
SDH (U/L) ± SEM ([11]; 100 mg/kg/day oral): 603.0 ± 27.3 U/L
Glucose [12]: 558 ± 28 mg/dL
Glucose (% of Control) [12]: 99 ± 5 % of Control
